{"source": "patent US6783949B1", "about": "“Processes for determining whether a test substance contains lipases or lipase inhibitors” (Aventis Pharma Deutschland GmbH, priority 1999, dated 2004)", "target": "T1, HSL (Rattus norvegicus, UniProt P15304)", "T1 construct": "The partially purified HSL can be stored at −70° C. for 4 to 6 weeks; from tissue; host or cells: rat epididymal fat cells (male Wistar rats)", "T1 sequence (P15304 1-768 isoform P15304-2)": "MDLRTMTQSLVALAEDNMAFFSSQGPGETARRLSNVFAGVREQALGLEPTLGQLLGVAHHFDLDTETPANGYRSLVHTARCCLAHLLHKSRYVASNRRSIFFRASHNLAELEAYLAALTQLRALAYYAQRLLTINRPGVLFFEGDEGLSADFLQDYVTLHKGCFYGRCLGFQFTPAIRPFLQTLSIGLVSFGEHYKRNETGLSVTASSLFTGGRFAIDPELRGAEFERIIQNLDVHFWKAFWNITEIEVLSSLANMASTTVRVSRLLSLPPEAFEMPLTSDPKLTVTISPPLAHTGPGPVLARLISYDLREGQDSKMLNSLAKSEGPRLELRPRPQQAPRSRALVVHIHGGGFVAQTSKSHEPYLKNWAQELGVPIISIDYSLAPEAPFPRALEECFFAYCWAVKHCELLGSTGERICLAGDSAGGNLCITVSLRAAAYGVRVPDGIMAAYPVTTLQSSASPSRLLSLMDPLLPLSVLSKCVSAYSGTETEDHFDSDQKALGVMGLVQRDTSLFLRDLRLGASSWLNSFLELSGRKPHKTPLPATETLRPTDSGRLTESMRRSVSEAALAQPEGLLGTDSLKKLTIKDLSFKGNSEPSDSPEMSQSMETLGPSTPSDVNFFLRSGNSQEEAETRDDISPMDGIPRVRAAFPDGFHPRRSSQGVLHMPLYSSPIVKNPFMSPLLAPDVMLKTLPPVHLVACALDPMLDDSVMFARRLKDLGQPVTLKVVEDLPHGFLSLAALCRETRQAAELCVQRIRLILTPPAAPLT", "test": "Direct NAG assay (released NBD-FA, TLC/fluorimetry)", "type": "biochemical", "details": "for Absorption change, Released NBD-FA, 550 nm: 60 min, NAG 0.05 mg/ml", "method": "Isolated rat fat cells are obtained from epididymal fatty tissue from untreated male rats (Wistar, 220-250 g) by collagenase treatment according to published processes. The fat cells from 10 rats are washed three times by flotation with 50 ml each of homogenization buffer ([…], pH 7.4, 0.25 M sucrose, 1 mM ethylenediamine-N,N,N′,N′-tetraacetic acid (EDTA), 1 mM dithiothreitol (DTT), 10 μg/ml of leupeptin, 10 μg/ml of antipain, 20 μg/ml of pepstatin) and finally taken up in 10 ml of homogenization buffer. The fat cells are homogenized in a Teflon-in-glass homogenizer (Braun-Melsungen) by 10 strokes at 1500 rpm and 15° C. The homogenizate is centrifuged (Sorvall SM24 tubes, 5000 rpm, 10 min, 4° C.). The […] between the overlying fatty layer and the pellet is removed and the centrifugation is repeated. The […] resulting from this is centrifuged again (Sorvall SM24 tubes, 20,000 rpm, 45 min, 4° C.). […] After incubation for 60 min at 4° C. (shake at intervals of 15 min), the batch is centrifuged (Sorvall SM24 tubes, 3000 rpm, 10 min, 4° C.). The supernatant is brought to pH 5.2 by addition of glacial acetic acid and incubated at 4° C. for 30 min. The precipitates are collected by centrifugation (Sorvall SS34, 12,000 rpm, 10 min, 4° C.) and suspended in 2.5 ml of 20 mM TRIS/HCl, pH 7.0, 1 mM EDTA, 65 mM NaCl, 13% sucrose, 1 mM DTT, 10 μg/ml of leupeptin/pepstatin/antipain. The suspension is dialyzed overnight at 4° C. against 25 mM TRIS/HCl, pH 7.4, 50% glycerol, 1 mM DTT, and 10 μg/ml of leupeptin, pepstatin, and antipain and then applied to a hydroxylapatite column (0.1 g per 1 ml of suspension, equilibrated with 10 mM potassium phosphate, pH 7.0, 30% glycerol, 1 mM DTT). The column is washed with four volumes of equilibration buffer at a flow rate of 20 to 30 ml/h. The HSL is eluted with a volume of equilibration buffer which contains 0.5 M potassium phosphate, then dialyzed (see above) and concentrated 5 to 10 times by ultrafiltration (Amicon Diaflo PM 10 filter) at 4° C. The partially purified HSL can be stored at −70° C. for 4 to 6 weeks.\n6 mg of phosphatidylcholine and 6 mg of phosphatidylinositol are dissolved in 1 ml of chloroform each. 10 mg of NAG are dissolved in 1 ml of chloroform. Two parts of phosphatidylinositol solution (e.g., 83.5 μl) and one part of phosphatidylcholine solution (e.g., 41.5 μl) and 100 μl of NAG solution are pipetted together into plastic scintillation containers (final concentration in the test: 0.0375 mg of phospholipid/ml; 0.05 mg/NAG/ml). The chloroform (225 μl total volume) is completely removed by overblowing with a stream of N2. The dried substrate can be stored at 4° C. for up to three days. For the preparation of the phospholipid vesicles/micelles having intercalated NAG (on the test day), the dried substrate is taken up in 20 ml of assay buffer (25 mM TRIS/HCl, pH 7.4; 150 mM NaCl) and two ultrasonic treatments with an ultrasonic probe (Branson Sonifier type 11, standard microtip): 1st treatment setting 2, 2×1 min, in between in each case 1 min on ice; 2nd treatment setting 4, 2×1 min, in between in each case 1 min on ice. During this procedure, the color of the substrate solution changed from yellow (extinction maximum 481 nm) to red (extinction maximum 550 nm) due to intercalation of NAG between the phospholipid molecules of the vesicles/micelles. Before use as a substrate (within the next 2 h), the solution is additionally incubated on ice for 15 min.\nAltematively to the measurement of the extinction change of the substrate solution, the products of the HSL reaction are investigated by phase separation/thin-layer chromatography. For this, the incubation batch (200 μl total volume, see indirect NAG assay) is mixed in 2 ml Eppendorf vessels with 1.3 ml of methanol/chloroform/heptane (10:9:7) and then with 0.4 ml of 0.1 M NaOH. After intensive mixing (10 sec), the phase separation is initiated by centrifugation (800×g, 20 min, room temperature). […]", "data": [{"smiles": "O=C(CCCCCCCCCCCNc1ccc([N+](=O)[O-])c2nonc12)OCC(O)CO", "note": "(racemic) [Compound 3]", "values": [{"measurement": "IC50", "result": "1020 ± 250", "unit": "nM"}]}, {"smiles": "O=C(CCCCCCCCCCCNc1ccc([N+](=O)[O-])c2nonc12)OCC(O)CO", "note": "(stereo not shown) [Compound (3)]", "values": [{"measurement": "Absorption change, Released NBD-FA, 550 nm", "setting": "HSL 1 μg", "result": "17 ± 2", "unit": "arb. units"}, {"measurement": "Absorption change, Released NBD-FA, 550 nm", "setting": "HSL 2 μg", "result": "44 ± 5", "unit": "arb. units"}, {"measurement": "Absorption change, Released NBD-FA, 550 nm", "setting": "HSL 5 μg", "result": "103 ± 11", "unit": "arb. units"}, {"measurement": "Absorption change, Released NBD-FA, 550 nm", "setting": "HSL 7.5 μg", "result": "157 ± 21", "unit": "arb. units"}, {"measurement": "Absorption change, Released NBD-FA, 550 nm", "setting": "HSL 10 μg", "result": "215 ± 24", "unit": "arb. units"}, {"measurement": "Absorption change, Released NBD-FA, 550 nm", "setting": "HSL 15 μg", "result": "320 ± 29", "unit": "arb. units"}, {"measurement": "Absorption change, Released NBD-FA, 550 nm", "setting": "HSL 20 μg", "result": "432 ± 53", "unit": "arb. units"}, {"measurement": "Absorption change, Released NBD-FA, 550 nm", "setting": "HSL 25 μg", "result": "544 ± 61", "unit": "arb. units"}, {"measurement": "Absorption change, Released NBD-FA, 550 nm", "setting": "HSL 30 μg", "result": "616 ± 56", "unit": "arb. units"}, {"measurement": "Absorption change, Released NBD-FA, 550 nm", "setting": "HSL 40 μg", "result": "693 ± 67", "unit": "arb. units"}, {"measurement": "Absorption change, Released NBD-FA, 550 nm", "setting": "HSL 60 μg", "result": "733 ± 80", "unit": "arb. units"}, {"measurement": "Absorption change, Released NBD-FA, 550 nm", "setting": "HSL 80 μg", "result": "746 ± 98", "unit": "arb. units"}]}]}
